Results as given in ChEMBL document CHEMBL1137346, “Carbonic anhydrase inhibitors: clash with Ala65 as a means for designing inhibitors with low affinity for the ubiquitous isozyme II, exemplified by the crystal structure of the topiramate sulfamide analogue” (J Med Chem, 2006).

Key:
[1] = target: Carbonic anhydrase 5B, mitochondrial (Homo sapiens, UniProt Q9Y2D0)
Carbonic anhydrase 4 = Carbonic anhydrase 4 (Homo sapiens, UniProt P22748)
Carbonic anhydrase 13 = Carbonic anhydrase 13 (Mus musculus, UniProt Q9D6N1)
Carbonic anhydrase 7 = Carbonic anhydrase 7 (Homo sapiens, UniProt P43166)
Carbonic anhydrase 14 = Carbonic anhydrase 14 (Homo sapiens, UniProt Q9ULX7)
[2] = target: Carbonic anhydrase 5A, mitochondrial (Homo sapiens, UniProt P35218)
Carbonic anhydrase 5A, mitochondrial, sequence (P35218 whole entry): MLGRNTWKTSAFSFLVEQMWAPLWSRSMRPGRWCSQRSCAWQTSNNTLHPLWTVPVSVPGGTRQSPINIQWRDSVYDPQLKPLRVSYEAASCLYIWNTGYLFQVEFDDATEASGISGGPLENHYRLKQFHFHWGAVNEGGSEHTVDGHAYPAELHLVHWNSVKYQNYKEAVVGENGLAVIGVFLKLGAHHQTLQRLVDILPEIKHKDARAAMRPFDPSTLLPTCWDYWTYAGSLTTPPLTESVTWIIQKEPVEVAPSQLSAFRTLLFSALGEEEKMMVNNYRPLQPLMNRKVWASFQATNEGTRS

Carbonic anhydrase 13, sequence (Q9D6N1 whole entry): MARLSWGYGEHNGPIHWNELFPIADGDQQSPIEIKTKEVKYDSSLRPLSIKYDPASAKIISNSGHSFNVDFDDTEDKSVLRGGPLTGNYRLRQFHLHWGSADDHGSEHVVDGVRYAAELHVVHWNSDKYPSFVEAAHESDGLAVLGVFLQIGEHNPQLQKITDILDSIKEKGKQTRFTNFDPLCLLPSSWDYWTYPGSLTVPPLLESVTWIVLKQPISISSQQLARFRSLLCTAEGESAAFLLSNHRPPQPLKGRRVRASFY
Carbonic anhydrase 4, sequence (P22748 whole entry): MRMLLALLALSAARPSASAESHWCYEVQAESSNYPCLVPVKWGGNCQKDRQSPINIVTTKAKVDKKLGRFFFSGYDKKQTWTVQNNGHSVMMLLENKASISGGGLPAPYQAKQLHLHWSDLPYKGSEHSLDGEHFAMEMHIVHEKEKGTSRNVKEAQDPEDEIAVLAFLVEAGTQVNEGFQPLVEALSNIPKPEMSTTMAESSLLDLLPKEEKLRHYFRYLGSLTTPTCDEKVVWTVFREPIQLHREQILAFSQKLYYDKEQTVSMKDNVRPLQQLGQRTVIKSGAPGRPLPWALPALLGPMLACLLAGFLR
Carbonic anhydrase 14, sequence (Q9ULX7 whole entry): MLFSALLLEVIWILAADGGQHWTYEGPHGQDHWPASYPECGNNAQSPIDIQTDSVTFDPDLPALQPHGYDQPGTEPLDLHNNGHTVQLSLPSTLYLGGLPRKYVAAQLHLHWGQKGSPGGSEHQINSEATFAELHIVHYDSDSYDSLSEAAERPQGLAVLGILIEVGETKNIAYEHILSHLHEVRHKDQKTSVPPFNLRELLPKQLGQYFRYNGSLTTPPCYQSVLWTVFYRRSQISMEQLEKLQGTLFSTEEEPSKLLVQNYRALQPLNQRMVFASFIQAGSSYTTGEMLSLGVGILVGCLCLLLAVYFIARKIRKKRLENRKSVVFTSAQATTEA
Carbonic anhydrase 5B, mitochondrial, sequence (Q9Y2D0 whole entry): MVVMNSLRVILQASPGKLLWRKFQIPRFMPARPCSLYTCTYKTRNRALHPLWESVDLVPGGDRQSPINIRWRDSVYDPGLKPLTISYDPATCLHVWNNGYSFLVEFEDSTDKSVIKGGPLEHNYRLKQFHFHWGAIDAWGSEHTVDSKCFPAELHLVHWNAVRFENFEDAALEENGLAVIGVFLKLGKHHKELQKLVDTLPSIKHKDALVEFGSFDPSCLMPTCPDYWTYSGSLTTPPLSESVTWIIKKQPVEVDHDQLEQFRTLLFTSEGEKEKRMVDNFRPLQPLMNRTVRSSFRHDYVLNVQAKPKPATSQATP
Carbonic anhydrase 7, sequence (P43166 whole entry): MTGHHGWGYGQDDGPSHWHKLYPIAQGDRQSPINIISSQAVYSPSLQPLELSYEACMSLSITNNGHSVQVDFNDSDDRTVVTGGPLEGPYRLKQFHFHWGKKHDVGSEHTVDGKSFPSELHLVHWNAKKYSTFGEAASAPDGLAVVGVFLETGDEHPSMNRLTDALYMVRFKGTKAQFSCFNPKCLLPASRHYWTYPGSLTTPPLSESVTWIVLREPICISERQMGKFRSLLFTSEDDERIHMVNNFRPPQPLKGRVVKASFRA

Ki [1]: 21 nM
Ki (Carbonic anhydrase 4): 941 nM
Ki (Carbonic anhydrase 13): 30 nM
Ki (Carbonic anhydrase 7): 35 nM
Ki (Carbonic anhydrase 14): 25 nM
Ki [2]: 32 nM
Compound: CC1(C)O[C@@H]2[C@@H](CO[C@@]3(CNS(N)(=O)=O)OC(C)(C)O[C@@H]23)O1
